Consider 1 compound from US7977352B2, “Triazolopyridine compounds useful for the treatment of degenerative and inflammatory diseases” (Galapagos NV, priority 2006, dated 2011).

SMILES strings stand for the structures.

In this assay the test system is MMP1 expression by activated SFs. Description: MMP assay proof of principle: MMP1 produced by complex trigger activated SFs. Format: cell-based. The settings on record: Homo sapiens, supernatant of THP-1 cells treated with TNF-a (50% diluted), 48 hrs, FIG. 3, read-out: IC50 value, reduction of MMP1 expression by SFs. The procedure:
A 384-well format ELISA for measurement of MMP1 is developed. Various primary antibodies are tested, as well as various ELISA protocols. The following protocol is developed and validated to measure MMP1 levels in SF supernatant in 384 well plates: white Lumitrac 600 384 well plates (Greiner) are coated with 2 μg/mL anti-MMP1 antibody MAB1346 (Chemicon). The antibody is diluted in buffer 40 (1.21 g Tris base (Sigma), 0.58 g NaCl (Calbiochem) and 5 mL 10% NaN3 (Sigma) in 1 L milliQ water and adjusted to pH 8.5). After overnight incubation at 4° C., plates are washed with PBS (80 g NaCl, 2 g KCl (Sigma), 11.5 g Na2HPO4.7H2O and 2 g KH2PO4 in 10 L milliQ; pH 7.4) and blocked with 100 μL/well Casein buffer (2% Casein (VWR International) in PBS). Next day, casein buffer is removed from ELISA plates and replaced by 50 μL/well EC buffer (4 g casein, 2.13 g Na2HPO4 (Sigma), 2 g bovine albumin (Sigma), 0.69 g NaH2PO4.H2O (Sigma), 0.5 g CHAPS (Roche), 23.3 g NaCl, 4 mL 0.5 M EDTA pH 8 (Invitrogen), 5 mL 10% NaN3 in 1 L milliQ and adjusted to pH 7.0). 0.25 mM DTT (Sigma) is added to the thawed sample plates. After removal of the EC buffer, 20 μL of sample is transferred to the ELISA plates. […] Readout is performed on the Luminoscan Ascent Luminometer (Labsystems) with an integration time of 200 msec or with an Envision reader (Perkin Elmer). […]

Regarding `C[C@@H]1C[C@H]2[C@@H]3CCC4=CC(=O)C=C[C@]4(C)[C@@]3(F)[C@@H](O)C[C@]2(C)[C@@]1(O)C(=O)CO` [dexamethasone], the half-inhibitory concentration (IC50) – broadly, the concentration needed to halve the response being measured – is around 1 nM.
